The subject of experiment [1] is model mice with injured corneas. As to the kind of experiment: Instillation of PACAP receptor antagonists on model mice with injured corneas. The format is in vivo, mouse. The text has this: Next, to investigate which types of receptors are involved in healing-promoting effects of injured corneas by PACAP, the inventors performed an instillation experiment of PACAP receptor antagonists (PACAP6-38, VIP6-28). PACAP6-38 is an antagonist of PAC1R and VPAC2R. VIP6-28 is an antagonist of VPAC1R and VPAC2R.
In addition to the same operations as the instillation experiment in Example 5, PACAP6-38 (antagonist) (10^−9 M) or VIP6-28 (antagonist) (10^−9 M) was instilled immediately before instillation of PACAP and saline. Instillation of PACAP and saline ware performed every 2 hours.
Following four groups were created; the saline-only-instilled group, the PACAP-only-instilled group, the group instilled saline and an antagonist simultaneously, the group instilled PACAP and an antagonist simultaneously.
FIG. 10A is the result of PACAP6-38, and FIG. 10B is the result of VIP6-28. In FIG. 10, “saline” indicates the saline-only-instilled group. “PACAP” indicates the PACAP-only-instilled group. “PACAP6-38” or “VIP6-28” indicates the group instilled saline and an antagonist simultaneously. “PACAP6-38+PACAP” or “VIP6-28+PACAP” indicates the group instilled PACAP and an antagonist simultaneously.
As well as FIG. 9C, the area of the injured site of the cornea immediately after injury to the cornea (0 hour) is set as 100%.

Experiment [2] deals with HCEC-II cells. Nature of the experiment: Analysis of cell growth ability (MTT-assay). It is filed as cell-based, human. The protocol: (§1) Normal human corneal epithelial cells HCEC-II (manufactured by Kurabo Industries Ltd.) were cultured in an OcuLifeBM medium containing OcuLifeLifeFactor (both manufactured by Kurashiki Spinning Co., Ltd.) at 37° C., in the presence of 5% CO2.
HCEC-II cells were seeded in 96-well plates and cultured for 24 h. Subsequently, PACAP alone, or PACAP and AraC (cytarabine) were added. AraC (cytarabine) is a cytostatic agent. After the addition of these agents, the cell growth ability was analyzed by measuring the number of live cells from the value of absorbance at 570 nm using MTT cell growth kit I (manufactured by Roche Life Science Co., Ltd.). The reference wavelength was set at 650 nm.
The effects of PACAP are either due to 1) promoting cell growth, 2) promoting cell chemotaxis, or 3) promoting both cell growth and chemotaxis. To elucidate which of these could be caused, cell growth on days 1 and 4 after adding various concentrations of PACAP (10^−9 M to 10^−13 M) were analyzed by MTT-assay.

The test system of experiment [3] is HCEC-II cells. As to the kind of experiment: BrdU labeling of dividing cells. It is filed as cell-based, human. To be noted: 18 hours after adding PACAP (FIGS. 4A, 4B and 5). How it is done: Post-wounding dividing cells were observed by labeling with BrdU Labeling and Detection Kit I (Roche).
(§2) Outcomes of scratch assay and BrdU labeling were evaluated as following. Images were acquired by BZ-X700 (Keyence Inc.), and then quantitatively analyzed using the analysis applications (hybrid cell counts, macro cell counts) (Keyence Inc.).

Experiment [4] has as its system mice with lacrimal glands removed, injured corneas. Nature of the experiment: Corneal healing in mice with lacrimal glands removed. To be noted: LG−PACAP vs LG−saline, 10^−11 M PACAP, 12 hours after injuring, p<0.05 (FIG. 11). The format is in vivo, mouse. The text has this: (§3) First, mice with lacrimal glands removed were generated. Under inhalation anesthesia with sevoflurane, the extraorbital lacrimal glands and lacrimal ducts of mice were removed. Both lacrimal glands were removed after the lacrimal ducts were removed to expose the intraorbital lacrimal glands. Then the skin was sutured and the mice were kept warm until awaking from anesthesia. The amount of tear secretion in mice before and after removal of lacrimal glands was confirmed by the cotton thread method.
FIG. 11 is a graph showing the measurement result of the area of injured sites of corneas (fluorescent area) of upon administration of saline or PACAP at 0, 12, and 24 hours after injuring of corneas of mice. The method and the frequency of administration of saline or PACAP were the same as in Example 5.
(§4) The area of the injured site of the cornea immediately after injury to the cornea (0 hour) is set as 100%.
In FIG. 11, “LG+saline” indicates the result of saline administration to mice without lacrimal glands removed. “LG+PACAP” indicates the result of PACAP administration to mice without lacrimal glands removed. “LG−saline” indicates the result of saline administration to mice with lacrimal glands removed. “LG−PACAP” indicates the result of PACAP administration to mice with lacrimal glands removed. The concentration of PACAP is 10^−11 M.

Experiment [5] has as its system Normal human corneal epithelial cells HCEC-II. Nature of the experiment: Scratch assay on HCEC-II cells. It is filed as cell-based. How it is done: as §1
Wound-healing-promoting effects of PACAP were evaluated by scratch assay. HCEC-II cells were seeded in 24-well plates, cultured, and then wounded by a CELL Scratcher scratch stick (manufactured by Asahi Glass Co., Ltd.) (between a dotted line and a dotted line in FIG. 1).
Immediately after wounding, PACAP38 alone or PACAP38 and AraC were added, and cells infiltrating the wounded area were observed.
as §2

Experiment [6] relates to mice with lacrimal glands removed. Nature of the experiment: Tear secretion by the cotton thread method. The format is in vivo, mouse. To be noted: mice with lacrimal glands removed (not shown in figures).
Text: as §3

Experiment [7] relates to eye of a rabbit with detached corneas. To be noted: PACAP administered to eye, in comparison with controls; cited from earlier work.
Experiment [8] relates to model mice with injured corneas. As to the kind of experiment: PACAP instillation on model mice with injured corneas. The format is in vivo, mouse (C57BL/6J). How it is done: To study the healing effects of PACAP instillation on an injured site of a corneal, the inventors created model mice with injured corneas. Injured sites were created by marking a cornea of a mouse (C57BL/6J, male, 8-12 weeks old) with a 1-mm-diameter biopsy punch and detaching corneal epithelia within the marks with tweezers. At the injured sites, 2 μL of 10^−9 M PACAP, 10^−11 M PACAP, 10^−13 M PACAP, or saline was instilled every 2 hours for a total of seven times up to 12 hours later. In addition, the injured sites were visualized by instilling 2 μL of 0.1% fluorescein (a fluorescent colorant) in a total of 3 times after 0, 12, and 24 hours, and photographing was performed.
In addition, eyeballs at after 0 and 12 hours were removed, and tissue sections were made after paraffin embedding, followed by hematoxylin and eosin staining (HE staining). From the captured fluorescent images, by using image analysis software (ImageJ), the area and the outer periphery of injured sites of corneas were measured when saline was instilled and when PACAP of the respective concentrations were instilled.
as §4

Experiment [9] relates to SV40-human corneal epithelial cell line (HCEC). As to the kind of experiment: In vitro scratch assay on monolayer sheets of human corneal cultured cells. To be noted: 10^−11 M PACAP, 6 hours after scratching, vs PBS-treated control group (FIG. 12B). The format is cell-based. The protocol:
To evaluate the corneal healing effects of PACAP in vitro, a scratch assay was performed using a human corneal epithelial cell line. A SV40-human corneal epithelial cell line (HCEC) was purchased from the Human Science Research Resource Bank (Health Science Research Resources Bank). Cells were cultured in a medium containing DMEM, 1×antibiotic-antifungal agent (manufactured by Thermo Fisher Scientific Co., Ltd.), and 10% fetal bovine serum (FBS). Cultures were performed at 37° C. in the presence of 5% CO2.
In invasion assays, a floating HCEC with 10^6 cells was seeded in 12-well plates. After 2 days of incubation, the confluent cell layer was cross-shaped wounded with plastic sticks. PBS or various types of PACAP (final concentrations: 10^−15 M, 10^−13 M, 10^−11 M, 10^−9 M, and 10^−7 M) were added to […]. Scratch sites (wounded sites) were photographed by Nicon Biostation CT (Nikon Co., Ltd.) at regular intervals. Areas of the scratch sites were measured by CL-Quant software (made by Nikon Inc.).
The area of the scratch site immediately after the scratch (0 hour) is set as 100%.

Setting [10] is: 10^−9 M PACAP and 15 μM AraC (FIG. 1A to C).

Ends that are not written are not given here.

In the case of “VIP6-28: PACAP receptor antagonist; antagonist of VPAC1R and VPAC2R (FTDNYTRLRKQMAVKKYLNSILN; ends and bridges not checked; UniProt P01282 130-152, looked up, fragment)”, the “effect of antagonist on PACAP-induced healing of injured corneas” value in experiment [1] (antagonist 10^−9 M instilled with PACAP (FIG. 10B)) was “not suppressed”.
In the case of `Nc1ccn([C@@H]2O[C@H](CO)[C@@H](O)[C@@H]2O)c(=O)n1` [AraC, cytarabine, reference compound], the “effect of AraC on the cell-growth-promoting effects of PACAP” value in the experiment with HCEC-II cells [2] (15 μM AraC) was “almost completely suppressed”.
As for “PACAP6-38: PACAP receptor antagonist; antagonist of PAC1R and VPAC2R (FTDSYSRYRKQMAVKKYLAAVLGKRYKQRVKNK; ends and bridges not checked; UniProt P18509 137-169, looked up, fragment)”, the “effect of antagonist on PACAP-induced healing of injured corneas” value in experiment [1] (antagonist 10^−9 M instilled with PACAP, 12 hours after injuring, vs PACAP-only group, p<0.05 (FIG. 10A)) is listed as “significantly suppressed”.
As to “PACAP: Pituitary Adenylate Cyclase-Activating Polypeptide; PACAP38, 38 amino acid residues (Peptide Research Institute, Osaka) (HSDGIFTDSYSRYRKQMAVKKYLAAVLGKRYKQRVKNK; ends and bridges not checked; UniProt P18509 132-169, looked up)”, in the experiment on HCEC-II cells [3], the “number of BrdU positive (dividing) cells” value is recorded as “an increase of number of BrdU positive cells”. The “area of injured sites of corneas (fluorescent area)” value in experiment [4] is on record as “became significantly smaller”. The “cell growth by MTT-assay” value in the experiment on HCEC-II cells [2] (1 day after addition, 10^−9 M to 10^−13 M PACAP, relative to cells with no PACAP (FIG. 3)) was “cells grew at any concentration”; in the experiment with HCEC-II cells [2] (4 days after addition, 10^−9 M to 10^−13 M PACAP (FIG. 3)), “the effect was remarkable”. The “cell-infiltration compared with 10^−9 M PACAP alone” value in experiment [5] (setting [10]) is on record as “less”. For the same compound, the “cell-infiltration compared with controls” value in experiment [5] (setting [10]) is on record as “increased more than in controls”. Also, the “area of the wounded site at 18 h” value in [5] (10^−9 M PACAP in the presence of 15 μM AraC, compared to the control (FIG. 6)) was “increased”; in experiment [5] (10^−11 M PACAP in the presence of 15 μM AraC (FIG. 6)), “reduced”. Moreover, the “cellular infiltrates at the wounded site” value in experiment [5] (10^−9 M PACAP, 4 days post-wounding, compared to controls (FIG. 1A, B)) was “more cellular infiltrates were observed at the wounded site”. The “area of the wounded site” value in [5] (10^−9 M PACAP, compared to controls (FIG. 2, 18 h)) was “reduced”. Also, the “tear secretion after instillation” value in [6] is listed as “did not promote tear secretion”. Further, the “restoration of corneal epithelium” value in experiment [7] is recorded as “accelerated”. Further, the “area of the injured site of the cornea (fluorescent area)” value in experiment [8] (10^−9 M PACAP instilled, 12 hours after injuring, vs saline group (FIG. 9C)) is recorded as “significantly smaller”; in experiment [8] (10^−11 M PACAP instilled, 12 hours after injuring, vs saline group (FIG. 9C)) it was “significantly smaller”; in experiment [8] (all concentrations (10^−9, 10^−11, 10^−13 M), 24 hours after injuring, p<0.01 vs saline group (FIG. 9C)) it was “significantly smaller”. Further, the “periphery of the injured site of the cornea” value in [8] (10^−9 M PACAP instilled, 12 hours after injuring, vs saline group (not shown in figures)) is given as “significantly smaller”; in experiment [8] (10^−11 M PACAP instilled, 12 hours after injuring, vs saline group (not shown in figures)), “significantly smaller”; in experiment [8] (all concentrations, 24 hours after injuring (not shown in figures)) it was “significantly smaller”. Also, the “size of injured sites of corneas (fluorescence image)” value in experiment [8] (12 and 24 hours after injuring, PACAP-instilled vs saline-instilled group (FIG. 9A)) was “became smaller than those of the saline-instilled group”. The “corneal epithelium in HE staining” value in [8] (12 hours after instillation (FIG. 9B)) was “the corneal epithelium was restored”. The “most effective concentration of PACAP” value in experiment [8] (instillation, injured cornea area) was 10^−11 M. For the same compound, the “area of the scratch site” value in experiment [9] is on record as “significantly reduced”.
